Legend:
[1] = test system: E. coli ESBL4 expressing CTX-M-15; test: Broth microdilution MIC, E. coli ESBL4 CTX-M-15; assay type: cell-based; details: fixed 4 μg/mL ceftazidime; CAMHB, 16-20 hours at 37° C.
Outline: (§1)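 Strains were grown 3-5 h in cation-adjusted Mueller Hinton broth, then inoculated per CLSI into plates holding compound dilutions (32 to 0.25 μg/ml, 2-fold) plus a β-lactam fixed at 4 μg/ml. Plates were incubated 16-20 h at 37° C before visual MIC reading.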

[2] = test system: S. aureus MSSA-7 producing penicillinase PC-1; test: Broth microdilution MIC, S. aureus MSSA-7 PC-1; assay type: cell-based; details: fixed 4 μg/mL piperacillin; CAMHB, 16-20 hours at 37° C.
Outline: as §1

[3] = target: T1, OXA-1 β-lactamase (Class D oxacillinase) (Escherichia coli, UniProt P13661); test: β-Lactamase inhibition, OXA-1; assay type: biochemical; details: nitrocefin 100 μM, 486 nm; 15 min preincubation at 37° C., PBS pH 7.4
T1 construct: made in house; host or cells: E. coli BL21(DE3)
Outline: (§2)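 Compounds are mixed with purified, untagged recombinant β-lactamase and held 15 min at 37 °C. Substrate is then added: nitrocefin (100 μM final) for OXA-1, imipenem for KPC-2, cefotaxime for SHV-5. Absorbance is followed immediately, and percent inhibition per concentration gives the IC50.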

[4] = test system: E. cloacae 144200 expressing Class C P99 AmpC; test: Broth microdilution MIC, E. cloacae 144200 p99 AmpC; assay type: cell-based; details: fixed 4 μg/mL ceftazidime; CAMHB, 16-20 hours at 37° C.
Outline: as §1

[5] = target: T2, p99 AmpC β-lactamase (Class C) (Enterobacter cloacae, UniProt P05364); test: β-Lactamase inhibition, p99 AmpC; assay type: biochemical
T2 construct: made in house; host or cells: E. coli BL21(DE3)

[6] = test system: P. aeruginosa Ps296 expressing VIM-2; test: Broth microdilution MIC, P. aeruginosa Ps296 VIM-2; assay type: cell-based; details: fixed 4 μg/mL meropenem; CAMHB, 16-20 hours at 37° C.
Outline: as §1

[7] = test system: K. pneumoniae 156319 expressing KPC-3; test: Broth microdilution MIC, K. pneumoniae 156319 KPC-3; assay type: cell-based; details: fixed 4 μg/mL meropenem; CAMHB, 16-20 hours at 37° C.
Outline: as §1

[8] = target: T3, SHV-5 β-lactamase (Class A ESBL) (Klebsiella pneumoniae, UniProt P0A3M1); test: β-Lactamase inhibition, SHV-5; assay type: biochemical
T3 construct: made in house; host or cells: E. coli BL21(DE3)
Outline: as §2

[9] = test system: K. pneumoniae A-1797 expressing KPC-2 and VIM-4; test: Broth microdilution MIC, K. pneumoniae A-1797 KPC-2/VIM-4; assay type: cell-based; details: fixed 4 μg/mL meropenem; CAMHB, 16-20 hours at 37° C.
Outline: as §1

[10] = target: T4, VIM-2 metallo-β-lactamase (Class B) (Pseudomonas aeruginosa, UniProt Q9K2N0); test: β-Lactamase inhibition, VIM-2; assay type: biochemical; details: nitrocefin 100 μM, 486 nm; 15 min preincubation at 37° C., PBS pH 7.4
T4 construct: made in house; host or cells: E. coli BL21(DE3)
Outline: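 First, VIM-2 purified by repeated anion exchange at pH 7.5 is mixed with inhibitor and held 15 min at 37 °C. Next, nitrocefin (final 100 μM) is dispensed and absorbance at 486 nm monitored immediately for 10 min. Rates versus uninhibited controls give IC50.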

[11] = target: T5, KPC-2 β-lactamase (Class A carbapenemase) (Klebsiella pneumoniae, UniProt Q9F663); test: β-Lactamase inhibition, KPC-2; assay type: biochemical; details: imipenem substrate, 300 nm; 15 min preincubation at 37° C., PBS pH 7.4
T5 construct: made in house; host or cells: E. coli BL21(DE3)
Outline: as §2

T3 sequence (P0A3M1 22-286): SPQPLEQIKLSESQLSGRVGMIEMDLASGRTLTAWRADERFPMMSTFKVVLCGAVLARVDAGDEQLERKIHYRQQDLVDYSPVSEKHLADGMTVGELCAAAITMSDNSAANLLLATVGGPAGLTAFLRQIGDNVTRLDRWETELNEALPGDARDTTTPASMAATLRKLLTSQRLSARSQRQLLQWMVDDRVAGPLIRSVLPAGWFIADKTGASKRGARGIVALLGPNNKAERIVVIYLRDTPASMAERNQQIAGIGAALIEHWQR
T1 sequence (P13661 26-276): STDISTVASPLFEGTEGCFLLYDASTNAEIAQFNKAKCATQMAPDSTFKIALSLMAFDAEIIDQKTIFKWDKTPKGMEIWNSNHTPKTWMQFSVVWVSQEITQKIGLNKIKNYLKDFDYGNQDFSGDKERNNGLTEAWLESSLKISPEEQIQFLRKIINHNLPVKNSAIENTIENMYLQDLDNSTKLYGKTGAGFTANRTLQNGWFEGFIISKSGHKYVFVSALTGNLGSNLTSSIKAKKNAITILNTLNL
T2 sequence (P05364 21-381): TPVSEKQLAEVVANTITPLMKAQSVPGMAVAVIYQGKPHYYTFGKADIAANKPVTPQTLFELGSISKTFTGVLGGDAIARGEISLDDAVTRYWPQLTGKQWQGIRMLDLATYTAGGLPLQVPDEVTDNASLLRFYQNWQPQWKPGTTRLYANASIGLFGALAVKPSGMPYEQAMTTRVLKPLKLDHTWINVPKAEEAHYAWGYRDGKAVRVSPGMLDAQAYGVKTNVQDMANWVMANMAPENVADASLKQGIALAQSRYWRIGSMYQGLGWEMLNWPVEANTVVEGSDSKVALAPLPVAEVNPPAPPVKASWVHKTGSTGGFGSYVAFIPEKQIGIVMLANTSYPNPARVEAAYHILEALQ
T5 sequence (Q9F663 25-293, looked up): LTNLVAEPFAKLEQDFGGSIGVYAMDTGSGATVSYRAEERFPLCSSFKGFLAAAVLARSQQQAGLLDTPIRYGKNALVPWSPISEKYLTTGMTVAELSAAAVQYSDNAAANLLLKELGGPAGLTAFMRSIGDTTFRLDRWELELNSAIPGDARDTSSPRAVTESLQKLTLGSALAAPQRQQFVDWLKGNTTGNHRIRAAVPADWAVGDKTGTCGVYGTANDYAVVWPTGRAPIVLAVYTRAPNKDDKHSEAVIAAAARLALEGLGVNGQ

Row | Structure (SMILES) | MIC of example compound in presence of fixed β-lactam: Fixed CAZ, E. coli ESBL4 CTX-M-15 [1] | MIC of example compound in presence of fixed β-lactam: Fixed Pip, S. aureus MSSA-7 PC-1 [2] | IC50 [3] [nM] | MIC of example compound in presence of fixed β-lactam: Fixed CAZ, E. cl. 144200 p99 AmpC [4] | IC50 [5] [nM] | MIC of example compound in presence of fixed β-lactam: Fixed Mero, P. aerug. Ps296 VIM-2 [6] | MIC of example compound in presence of fixed β-lactam: Fixed Mero, K. P. 156319 KPC-3 [7] | IC50 [8] [nM] | MIC of example compound in presence of fixed β-lactam: Fixed Mero, K. P. A-1797 KPC-2 VIM-4 [9] | IC50 [10] [nM] | IC50 [11] [nM]
1 | O=C(O)CN1CCN(CC(=O)N[C@H]2Cc3cccc(C(=O)O)c3OB2O)CC1 [Example 25, 3-[2-(4-Carboxymethyl-piperazin-1-yl)-acetylamino]-2-hydroxy-3,4-dihydro-2H-benzo[e][1,2]oxaborinine-8-carboxylic acid] | C (the MIC in the presence of <4 μg/mL of a β-lactamase inhibitor) | C (the MIC in the presence of <4 μg/mL of a β-lactamase inhibitor) | < 100 | C (the MIC in the presence of <4 μg/mL of a β-lactamase inhibitor) | < 100 | B (the MIC in the presence of between 8 and 32 μg/mL of a β-lactamase inhibitor) | B (the MIC in the presence of between 8 and 32 μg/mL of a β-lactamase inhibitor) | < 100 | B (the MIC in the presence of between 8 and 32 μg/mL of a β-lactamase inhibitor) | 10000 to 100000 | 100 to 1000
2 | O=C(O)c1cccc2c1OB(O)[C@@H](NC(=O)C1CNC1)C2 [Example 46, (R)-3-(azetidine-3-carboxamido)-2-hydroxy-3,4-dihydro-2H-benzo[e][1,2]oxaborinine-8-carboxylic acid] | C (the MIC in the presence of <4 μg/mL of a β-lactamase inhibitor) | C (the MIC in the presence of <4 μg/mL of a β-lactamase inhibitor) | 100 to 1000 | C (the MIC in the presence of <4 μg/mL of a β-lactamase inhibitor) | < 100 | A (an MIC of the fixed β-lactam antibiotic in the presence of >32 μg/mL of a β-lactamase inhibitor) | B (the MIC in the presence of between 8 and 32 μg/mL of a β-lactamase inhibitor) | < 100 | A (an MIC of the fixed β-lactam antibiotic in the presence of >32 μg/mL of a β-lactamase inhibitor) | 1000 to 10000 | 100 to 1000
3 | NC1CCN(CCC(=O)N[C@H]2Cc3cccc(C(=O)O)c3OB2O)CC1 [Example 22, 3-[3-(4-Amino-piperidin-1-yl)-propionylamino]-2-hydroxy-3,4-dihydro-2H-benzo[e][1,2]oxaborinine-8-carboxylic acid] | C (the MIC in the presence of <4 μg/mL of a β-lactamase inhibitor) | C (the MIC in the presence of <4 μg/mL of a β-lactamase inhibitor) | 100 to 1000 | C (the MIC in the presence of <4 μg/mL of a β-lactamase inhibitor) | < 100 | A (an MIC of the fixed β-lactam antibiotic in the presence of >32 μg/mL of a β-lactamase inhibitor) | B (the MIC in the presence of between 8 and 32 μg/mL of a β-lactamase inhibitor) | 100 to 1000 | A (an MIC of the fixed β-lactam antibiotic in the presence of >32 μg/mL of a β-lactamase inhibitor) | 1000 to 10000 | 100 to 1000
4 | CNC1CCN(CC(=O)N[C@H]2Cc3cccc(C(=O)O)c3OB2O)CC1O (stereo partly drawn) [Example 20, 2-Hydroxy-3-[2-(3-hydroxy-4-methylamino-piperidin-1-yl)-acetylamino]-3,4-dihydro-2H-benzo[e][1,2]oxaborinine-8-carboxylic acid] | C (the MIC in the presence of <4 μg/mL of a β-lactamase inhibitor) | C (the MIC in the presence of <4 μg/mL of a β-lactamase inhibitor) | < 100 | C (the MIC in the presence of <4 μg/mL of a β-lactamase inhibitor) | < 100 | B (the MIC in the presence of between 8 and 32 μg/mL of a β-lactamase inhibitor) | C (the MIC in the presence of <4 μg/mL of a β-lactamase inhibitor) | 100 to 1000 | A (an MIC of the fixed β-lactam antibiotic in the presence of >32 μg/mL of a β-lactamase inhibitor) | 1000 to 10000 | 100 to 1000
5 | O=C(CN1CCNCC1)N[C@H]1Cc2cccc(C(=O)O)c2OB1O [Example 4, 2-Hydroxy-3-(2-piperazin-1-yl-acetylamino)-3,4-dihydro-2H-benzo[e][1,2]oxaborinine-8-carboxylic acid] | C (the MIC in the presence of <4 μg/mL of a β-lactamase inhibitor) | C (the MIC in the presence of <4 μg/mL of a β-lactamase inhibitor) | 100 to 1000 | C (the MIC in the presence of <4 μg/mL of a β-lactamase inhibitor) | < 100 | B (the MIC in the presence of between 8 and 32 μg/mL of a β-lactamase inhibitor) | C (the MIC in the presence of <4 μg/mL of a β-lactamase inhibitor) | < 100 | B (the MIC in the presence of between 8 and 32 μg/mL of a β-lactamase inhibitor) | 1000 to 10000 | < 100
6 | O=C(CN[C@@H]1CCNC1)N[C@H]1Cc2cccc(C(=O)O)c2OB1O [Example 9, 2-Hydroxy-3-[2-(pyrrolidin-3-ylamino)-acetylamino]-3,4-dihydro-2H-benzo[e][1,2]oxaborinine-8-carboxylic acid] | C (the MIC in the presence of <4 μg/mL of a β-lactamase inhibitor) | C (the MIC in the presence of <4 μg/mL of a β-lactamase inhibitor) | < 100 | C (the MIC in the presence of <4 μg/mL of a β-lactamase inhibitor) | < 100 | A (an MIC of the fixed β-lactam antibiotic in the presence of >32 μg/mL of a β-lactamase inhibitor) | C (the MIC in the presence of <4 μg/mL of a β-lactamase inhibitor) | < 100 | A (an MIC of the fixed β-lactam antibiotic in the presence of >32 μg/mL of a β-lactamase inhibitor) | 10000 to 100000 | < 100

Source: US10294248B2, “Beta-lactamase inhibitors” (VenatoRx Pharmaceuticals, Inc., priority 2013, dated 2019)
